Results published in patent publication US9676715B2, “Bis-indolic derivatives, a process for preparing the same and their uses as a drug” (UNIVERSITE JOSEPH FOURIER, priority 2011, dated 2017).
Values after ≈ are worked out from the molar mass of the structure shown.

Assays:
[1] = tested on: S. aureus ATCC 106414 (VISA); assay: MIC, microdilution method (9.1); format: cell-based, Staphylococcus aureus; conditions: Staphylococcus aureus, read after 18 h, read-out: MIC
Procedure, shortened: (§1)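 Steps: inoculum prepared in MH broth; dispensed to give 5×10^5 CFU/ml final; compound added as two-fold series, 0.50-128 mg/L final; incubated at 37° C. in ambient air; MIC scored per CLSI M07-A8.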

[2] = tested on: S. aureus ATCC 25923; assay: MIC, microdilution method (9.1); format: cell-based, Staphylococcus aureus; conditions: Staphylococcus aureus, ATCC25923, read after 18 h, read-out: MIC
Procedure, shortened: as §1

[3] = tested on: S. aureus ATCC 29213; assay: MIC, microdilution method (9.1); format: cell-based, Staphylococcus aureus; conditions: Staphylococcus aureus, ATCC29213, read after 18 h, read-out: MIC
Procedure, shortened: as §1

[4] = tested on: S. aureus ATCC 33592 (MRSA); assay: MIC, microdilution method (9.1); format: cell-based, Staphylococcus aureus; conditions: Staphylococcus aureus, read after 18 h, read-out: MIC
Procedure, shortened: as §1

[5] = tested on: S. aureus ATCC 6538; assay: MIC, microdilution method (9.1); format: cell-based, Staphylococcus aureus; conditions: Staphylococcus aureus, ATCC6538, read after 18 h, read-out: MIC
Procedure, shortened: as §1

[6] = tested on: S. aureus ATCC 9144; assay: MIC, microdilution method (9.1); format: cell-based, Staphylococcus aureus; conditions: Staphylococcus aureus, ATCC9144, read after 18 h, read-out: MIC
Procedure, shortened: as §1

[7] = tested on: S. aureus CIP 103428; assay: MIC, microdilution method (9.1); format: cell-based, Staphylococcus aureus; conditions: Staphylococcus aureus, CIP103428, read after 18 h, read-out: MIC
Procedure, shortened: as §1

[8] = tested on: S. aureus CIP 65.25 (MRSA); assay: MIC, microdilution method (9.1); format: cell-based, Staphylococcus aureus; conditions: Staphylococcus aureus, read after 18 h, read-out: MIC
Procedure, shortened: as §1

[9] = tested on: S. aureus CIP 65.6; assay: MIC, microdilution method (9.1); format: cell-based, Staphylococcus aureus; conditions: Staphylococcus aureus, CIP65, read after 18 h, read-out: MIC
Procedure, shortened: as §1

[10] = tested on: S. aureus SA-1199B; assay: MIC, microdilution method (9.1); format: cell-based, Staphylococcus aureus; conditions: Staphylococcus aureus, SA1199B, 18 h
Procedure, shortened: as §1

[11] = tested on: S. epidermidis ATCC 12228; assay: MIC, microdilution method (9.1); format: cell-based, Staphylococcus epidermidis; conditions: Staphylococcus epidermidis, ATCC12228, read after 18 h, read-out: MIC
Procedure, shortened: as §1

[12] = tested on: S. epidermidis CIP 103627; assay: MIC, microdilution method (9.1); format: cell-based, Staphylococcus epidermidis; conditions: Staphylococcus epidermidis, CIP103627, read after 18 h, read-out: MIC
Procedure, shortened: as §1

[13] = tested on: S. epidermidis CIP 81.55; assay: MIC, microdilution method (9.1); format: cell-based, Staphylococcus epidermidis; conditions: Staphylococcus epidermidis, CIP81, read after 18 h, read-out: MIC
Procedure, shortened: as §1

[14] = tested on: S. pneumoniae ATCC 6303; assay: MIC, microdilution method (9.1); format: cell-based, Streptococcus pneumoniae; conditions: Streptococcus pneumoniae, ATCC6303, 10% sheep blood, 5% CO2, 18 h, read-out: MIC
Procedure, shortened: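 Mueller Hinton broth cultures at 5×10^5 CFU/ml final were exposed to doubling concentrations of compound from 0.50 to 128 mg/L. Incubation: 37° C., ambient atmosphere. Method per CLSI M07-A8; blood supplement and CO2 reserved for fastidious organisms.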

[15] = tested on: S. agalactiae (group B) ATCC 12400; assay: MIC, microdilution method (9.1); format: cell-based, Streptococcus agalactiae; conditions: Streptococcus agalactiae, ATCC12400, 18 h, read-out: MIC
Procedure, shortened: as §1

[16] = tested on: S. pyogenes (group A) CIP 104226; assay: MIC, microdilution method (9.1); format: cell-based, Streptococcus pyogenes; conditions: Streptococcus pyogenes, CIP104226, 18 h, read-out: MIC
Procedure, shortened: as §1

[17] = tested on: S. mitis CIP 103335; assay: MIC, microdilution method (9.1); format: cell-based, Streptococcus mitis; conditions: Streptococcus mitis, CIP103335, 18 h, read-out: MIC
Procedure, shortened: as §1

[18] = tested on: E. faecium CIP 54.32; assay: MIC, microdilution method (9.1); format: cell-based, Enterococcus faecium; conditions: Enterococcus faecium, CIP54, 18 h, read-out: MIC
Procedure, shortened: as §1

[19] = tested on: E. faecalis ATCC 29212; assay: MIC, microdilution method (9.1); format: cell-based, Enterococcus faecalis; conditions: Enterococcus faecalis, ATCC29212, 18 h, read-out: MIC
Procedure, shortened: as §1

[20] = tested on: Escherichia coli ATCC 25922; assay: MIC, microdilution method (9.1); format: cell-based; conditions: ATCC25922, 18 h
Procedure, shortened: as §1

[21] = tested on: Klebsiella pneumoniae API ATCC 35657; assay: MIC, microdilution method (9.1); format: cell-based; conditions: ATCC35657, 18 h, read-out: MIC
Procedure, shortened: as §1

[22] = tested on: Listeria innocua CIP 80.11; assay: MIC, microdilution method (9.1); format: cell-based; conditions: CIP80, 18 h, read-out: MIC
Procedure, shortened: as §1

[23] = tested on: HCT116 (human colon tumor); assay: In vitro cytotoxicity; format: cell-based; conditions: read-out: % of cellular growth inhibition; for inhibition at 10 µM: HCT-116, 10^−5 M; for inhibition at 1 µM: HCT-116, 10^−6 M
Protocol: (§2) In vitro cytotoxicity was assayed on three cell lines—KB (human mouth carcinoma), MCR5 (human lung fibroblast) and HCT116 (human colon tumor). Results are presented in table IV as % of cellular growth inhibition in presence of 10^−5 M and 10^−6 M of the tested bis-indolic derivatives.

[24] = tested on: KB (human mouth carcinoma); assay: In vitro cytotoxicity; format: cell-based; conditions: read-out: % of cellular growth inhibition; for inhibition at 10 µM: 10^−5 M; for inhibition at 1 µM: 10^−6 M
Protocol: as §2

[25] = tested on: MRC5 (human lung fibroblast); assay: In vitro cytotoxicity; format: cell-based; conditions: read-out: % of cellular growth inhibition; for inhibition at 10 µM: 10^−5 M; for inhibition at 1 µM: 10^−6 M
Protocol: as §2

[26] = tested on: HCT116 (human colon tumor); assay: In vitro cytotoxicity; format: cell-based; conditions: HCT-116, HCT116, from 100 μM to 0.005 μM in DMSO, duplicate

| Structure (SMILES) | MIC [1] [µg/mL] | MIC [2] [µg/mL] | MIC [3] [µg/mL] | MIC [4] [µg/mL] | MIC [5] [µg/mL] | MIC [6] [µg/mL] | MIC [7] [µg/mL] | MIC [8] [µg/mL] | MIC [9] [µg/mL] | MIC [10] [µg/mL] | MIC [11] [µg/mL] | MIC [12] [µg/mL] | MIC [13] [µg/mL] | MIC [14] [µg/mL] | MIC [15] [µg/mL] | MIC [16] [µg/mL] | MIC [20] [µg/mL] | MIC [21] [µg/mL] | IC50 ([26]; first value) [µM] | IC50 ([26]; second value) [µM] | further results |
| --- | --- | --- | --- | --- | --- | --- | --- | --- | --- | --- | --- | --- | --- | --- | --- | --- | --- | --- | --- | --- | --- |
| CC(C)(C)OC(=O)NCC(NC(=O)c1c[nH]c2ccc(Br)cc12)c1c[nH]c2ccc(Br)cc12 (stereo not shown) [Compound 3f, tert-Butyl(2-(5-bromo-1H-indol-3-yl)-2-(5-bromo-1H-indolyl-3-carboxamido)ethyl)carbamate] | 2 (≈ 3.47 µM) | 1 (≈ 1.74 µM) | 1 (≈ 1.74 µM) | 2 (≈ 3.47 µM) | 1 (≈ 1.74 µM) | 1 (≈ 1.74 µM) | 1 (≈ 1.74 µM) | 2 (≈ 3.47 µM) | 1 (≈ 1.74 µM) | 2 (≈ 3.47 µM) | 1 (≈ 1.74 µM) | 1 (≈ 1.74 µM) | 2 (≈ 3.47 µM) | 32 (≈ 55.5 µM) | 32 (≈ 55.5 µM) | 32 (≈ 55.5 µM) | > 128 | > 128 | 5.24 | 5.05 | MIC [17]: 64 µg/mL (≈ 111 µM); MIC [18]: > 128 µg/mL; MIC [19]: > 128 µg/mL; MIC [22]: > 128 µg/mL; inhibition at 10 µM [23]: 89 ± 9%; inhibition at 1 µM [23]: 0%; inhibition at 10 µM [24]: 97 ± 1%; inhibition at 1 µM [24]: 0%; inhibition at 10 µM [25]: 91 ± 10%; inhibition at 1 µM [25]: 0% |
| CC(NC(=O)c1c[nH]c2ccc(Br)cc12)c1c[nH]c2ccc(Br)cc12 (stereo not shown) [Compound 4, 5-Bromo-N-(1-(5-bromo-1H-indol-3-yl)ethyl)-1H-indole-3-carboxamide] | 2 (≈ 4.34 µM) | 2 (≈ 4.34 µM) | 2 (≈ 4.34 µM) | 2 (≈ 4.34 µM) | 2 (≈ 4.34 µM) | 2 (≈ 4.34 µM) | 2 (≈ 4.34 µM) | 2 (≈ 4.34 µM) | 2 (≈ 4.34 µM) | 2 (≈ 4.34 µM) | 2 (≈ 4.34 µM) | 4 (≈ 8.67 µM) | 2 (≈ 4.34 µM) |  |  |  | > 128 | > 128 | 6.43 | 10 | inhibition at 10 µM [23]: 12 ± 1%; inhibition at 1 µM [23]: 0%; inhibition at 10 µM [24]: 13 ± 3%; inhibition at 1 µM [24]: 0%; inhibition at 10 µM [25]: 36 ± 4%; inhibition at 1 µM [25]: 7% |
| Cn1cc(C(=O)NC(CNC(=O)OC(C)(C)C)c2c[nH]c3ccc(Br)cc23)c2cc(Br)ccc21 (stereo not shown) [Compound 7, tert-Butyl (2-(5-bromo-1-methyl-1H-indole-3-carboxamido)-2-(5-bromo-1H-indol-3-yl)ethyl) carbamate] | > 128 | > 128 | > 128 | > 128 | > 128 | > 128 | > 128 | > 128 | > 128 | > 128 | > 128 | > 128 | > 128 | > 128 | > 128 | > 128 | > 128 | > 128 | 10.1 | 13.1 | MIC [17]: > 128 µg/mL; MIC [18]: > 128 µg/mL; MIC [19]: > 128 µg/mL; MIC [22]: > 128 µg/mL; inhibition at 10 µM [23]: 35 ± 3%; inhibition at 1 µM [23]: 8%; inhibition at 10 µM [24]: 52 ± 2%; inhibition at 1 µM [24]: 2%; inhibition at 10 µM [25]: 23 ± 6%; inhibition at 1 µM [25]: 12% |
| NCCCCNC(=O)C(NC(=O)c1c[nH]c2ccc(Br)cc12)c1c[nH]c2ccc(Br)cc12 (stereo not shown) [Compound 16, N-(2-((4-Aminobutyl)amino)-1-(5-bromo-1H-indol-3-yl)-2-oxoethyl)-5-bromo-1H-indole-3-carboxamide] | 8 (≈ 14.3 µM) | 8 (≈ 14.3 µM) | 8 (≈ 14.3 µM) | 8 (≈ 14.3 µM) | 8 (≈ 14.3 µM) | 8 (≈ 14.3 µM) | 8 (≈ 14.3 µM) | 8 (≈ 14.3 µM) | 8 (≈ 14.3 µM) |  | 8 (≈ 14.3 µM) | 8 (≈ 14.3 µM) | 8 (≈ 14.3 µM) | > 128 | > 128 | > 128 | 16 (≈ 28.5 µM) | > 32 | 52.9 | 42.8 | MIC [17]: > 128 µg/mL; MIC [18]: > 128 µg/mL; MIC [19]: > 128 µg/mL; MIC [22]: > 128 µg/mL |
